For experiment [1], the system named is HeLa. Kind of experiment: Cytotoxicity against human HeLa cells. The class given is functional, cell-based.
In experiment [2] the test system is Zymoseptoria tritici. Kind of experiment: […] activity against Septoria tritici. The class given is functional.
The subject of experiment [3] is HEp-2. Description: Cytotoxicity against human Hep2 cells. The class given is functional, cell-based.
Experiment [4] can be described thus: Cytotoxicity against human 95-D cells. It is filed as functional, cell-based.
Experiment [5] concerns Plutella xylostella. Kind of experiment: Insecticidal activity against Plutella xylostella. The class given is functional.
For experiment [6], the system named is Heliothis virescens. Description: Insecticidal activity against Heliothis virescens. The class given is functional.
In experiment [7] the test system is Uromyces viciae-fabae. Description: […] activity against Uromyces fabae. It is filed as functional.
The subject of experiment [8] is HepG2. Description: Cytotoxicity against human HepG2 cells. The class given is functional, cell-based.
Experiment [9] deals with Aphis gossypii. Description: Insecticidal activity against Aphis gossypii. It is filed as functional.
Experiment [10] can be described thus: Cytotoxicity against human KBv200 cells. The class given is functional, cell-based.
Experiment [11] deals with KB. Kind of experiment: Cytotoxicity against human KB cells. The class given is functional, cell-based.

Values after ≈ are worked out from the molar mass of the structure shown. A value given as a limit tells only on which side of the number the result lay.

For orientation: IC50 means the concentration needed to halve the response being measured. A low value points to greater potency in that assay. As to `O=C(O)c1c(-c2ccc[nH]2)[nH]c2ccccc2c1=O` [PENICINOLINE], the IC50 in [1] was > 100 µg/mL; in experiment [3], > 100 µg/mL; in experiment [4], 0.57 µg/mL (≈ 2.24 µM); in experiment [8] it was 6.5 µg/mL (≈ 25.6 µM); in [10], > 100 µg/mL; in [11], > 100 µg/mL. The min. effective conc. is > 1000 ppm in [2]; > 1000 ppm in [5]; > 1000 ppm in experiment [6]; > 1000 ppm in [7]; 1000 ppm in [9].

In the case of `Cn1c2c(c(=O)c3ccccc31)C(=O)n1cccc1-2` [PENICINOTAM], the min. effective conc. was > 1000 ppm in experiment [2]; 500 ppm in experiment [5]; > 1000 ppm in experiment [6]; > 1000 ppm in experiment [7]; 1000 ppm in experiment [9].
